In ChEMBL document CHEMBL4507261, “Data for DCP probe A-192621” (2021):

How the values were obtained:
[1] = target: Cholecystokinin receptor type A (Homo sapiens) (UniProt P32238); assay: CCK1 (CCKA) (h) Eurofins-Cerep binding assay; design: ligand concentration 0.08 nM; details: filed as agonist, Compound concentration 10.0 uM
[2] = target: Histamine H1 receptor (Homo sapiens) (UniProt P35367); assay: H1 (h) Eurofins-Cerep binding assay; design: ligand concentration 1 nM; details: filed as antagonist, Compound concentration 10.0 uM
[3] = target: MAO-A (amine oxidase [flavin-containing] A) (Rattus norvegicus, UniProt P21396); assay: MAO-A Eurofins-Cerep binding assay; design: incubation time 60 min, incubation temperature 37°C, ligand concentration 10 nM; details: rat cerebral cortex (source of protein), probe [3H]Ro 41-1049 (10 nM), compound concentration 10 uM, read-out: % Inhibition of Control Specific Binding (Mean n=2)
[4] = target: P2X receptor (Rattus norvegicus) (UniProt P51579+P49653+P51578+Q64663+P47824+P51577+P49654); assay: P2X Eurofins-Cerep binding assay; type: protein assay; design: ligand concentration 3 nM; details: filed as agonist, Compound concentration 10.0 uM
[5] = target: Bone morphogenetic protein receptor type-1A (Homo sapiens) (UniProt P36894); details: Compound concentration 1000.0 nM
[6] = test system: Serine/threonine-protein kinase B-raf (Homo sapiens), P15056 [V600E]; details: Compound concentration 1000.0 nM
[7] = target: Calcium/calmodulin-dependent protein kinase type 1B (Homo sapiens) (UniProt Q6P2M8); details: Compound concentration 1000.0 nM
[8] = target: Calcium/calmodulin-dependent protein kinase kinase 1 (Homo sapiens) (UniProt Q8N5S9); details: Compound concentration 1000.0 nM
[9] = target: Cyclin-dependent kinase 4 (Homo sapiens) (UniProt P11802); details: Compound concentration 1000.0 nM
[10] = target: Discoidin domain-containing receptor 2 (Homo sapiens) (UniProt Q16832); details: Compound concentration 1000.0 nM
[11] = test system: Epidermal growth factor receptor (Homo sapiens), P00533 [L858R]; details: Compound concentration 1000.0 nM
[12] = target: Mitogen-activated protein kinase 3 (Homo sapiens) (UniProt P27361); details: Compound concentration 1000.0 nM
[13] = target: Mitogen-activated protein kinase 4 (Homo sapiens) (UniProt P31152); details: Compound concentration 1000.0 nM
[14] = test system: Fibroblast growth factor receptor 3 (Homo sapiens), P22607 [G697C]; details: Compound concentration 1000.0 nM
[15] = target: Receptor-type tyrosine-protein kinase FLT3 (Homo sapiens) (UniProt P36888); details: Compound concentration 1000.0 nM
[16] = test system: Receptor-type tyrosine-protein kinase FLT3 (Homo sapiens), P36888 [UNDEFINED MUTATION]; details: Compound concentration 1000.0 nM
[17] = target: Receptor-type tyrosine-protein kinase FLT3 (Homo sapiens) (UniProt P36888); details: Compound concentration 1000.0 nM; remark: listed apart in the source
[18] = target: Tyrosine-protein kinase JAK2 (Homo sapiens) (UniProt O60674); details: Compound concentration 1000.0 nM
[19] = test system: Mast/stem cell growth factor receptor Kit (Homo sapiens), P10721 [D816H]; details: Compound concentration 1000.0 nM
[20] = target: Serine/threonine-protein kinase LATS1 (Homo sapiens) (UniProt O95835); details: Compound concentration 1000.0 nM
[21] = target: Mitogen-activated protein kinase kinase kinase 13 (Homo sapiens) (UniProt O43283); details: Compound concentration 1000.0 nM
[22] = target: Mitogen-activated protein kinase kinase kinase 1 (Homo sapiens) (UniProt Q13233); details: Compound concentration 1000.0 nM
[23] = target: MAP/microtubule affinity-regulating kinase 4 (Homo sapiens) (UniProt Q96L34); details: Compound concentration 1000.0 nM
[24] = target: Dual specificity mitogen-activated protein kinase kinase 3 (Homo sapiens) (UniProt P46734); details: Compound concentration 1000.0 nM
[25] = target: Dual specificity mitogen-activated protein kinase kinase 4 (Homo sapiens) (UniProt P45985); details: Compound concentration 1000.0 nM
[26] = target: MAP kinase-interacting serine/threonine-protein kinase 1 (Homo sapiens) (UniProt Q9BUB5); details: Compound concentration 1000.0 nM
[27] = target: Myosin light chain kinase (Homo sapiens) (UniProt Q32MK0); details: Compound concentration 1000.0 nM
[28] = target: Serine/threonine-protein kinase Nek11 (Homo sapiens) (UniProt Q8NG66); details: Compound concentration 1000.0 nM
[29] = target: Cyclin-dependent kinase 18 (Homo sapiens) (UniProt Q07002); details: Compound concentration 1000.0 nM
[30] = target: Platelet-derived growth factor receptor beta (Homo sapiens) (UniProt P09619); details: Compound concentration 1000.0 nM
[31] = target: Cyclin-dependent kinase 2 homolog (Plasmodium falciparum (isolate 3D7)) (UniProt P61075); details: Compound concentration 1000.0 nM
[32] = target: Serine/threonine-protein kinase D2 (Homo sapiens) (UniProt Q9BZL6); details: Compound concentration 1000.0 nM
[33] = target: Serine/threonine-protein kinase SIK3 (Homo sapiens) (UniProt Q9Y2K2); details: Compound concentration 1000.0 nM
[34] = target: Serine/threonine-protein kinase RIO2 (Homo sapiens) (UniProt Q9BVS4); details: Compound concentration 1000.0 nM
[35] = target: Rho-associated protein kinase 2 (Homo sapiens) (UniProt O75116); details: Compound concentration 1000.0 nM
[36] = target: Serine/threonine-protein kinase Sgk1 (Homo sapiens) (UniProt O00141); details: Compound concentration 1000.0 nM
[37] = target: Serine/threonine-protein kinase SIK2 (Homo sapiens) (UniProt Q9H0K1); details: Compound concentration 1000.0 nM
[38] = target: Proto-oncogene tyrosine-protein kinase Src (Homo sapiens) (UniProt P12931); details: Compound concentration 1000.0 nM
[39] = target: SRSF protein kinase 1 (Homo sapiens) (UniProt Q96SB4); details: Compound concentration 1000.0 nM
[40] = target: Serine/threonine-protein kinase tousled-like 2 (Homo sapiens) (UniProt Q86UE8); details: Compound concentration 1000.0 nM
[41] = target: Serine/threonine-protein kinase TNNI3K (Homo sapiens) (UniProt Q59H18); details: Compound concentration 1000.0 nM
[42] = target: BDNF/NT-3 growth factors receptor (Homo sapiens) (UniProt Q16620); details: Compound concentration 1000.0 nM
[43] = target: Dual specificity protein kinase TTK (Homo sapiens) (UniProt P33981); details: Compound concentration 1000.0 nM

Chain of Receptor-type tyrosine-protein kinase FLT3 (Homo sapiens) (P36888 whole entry): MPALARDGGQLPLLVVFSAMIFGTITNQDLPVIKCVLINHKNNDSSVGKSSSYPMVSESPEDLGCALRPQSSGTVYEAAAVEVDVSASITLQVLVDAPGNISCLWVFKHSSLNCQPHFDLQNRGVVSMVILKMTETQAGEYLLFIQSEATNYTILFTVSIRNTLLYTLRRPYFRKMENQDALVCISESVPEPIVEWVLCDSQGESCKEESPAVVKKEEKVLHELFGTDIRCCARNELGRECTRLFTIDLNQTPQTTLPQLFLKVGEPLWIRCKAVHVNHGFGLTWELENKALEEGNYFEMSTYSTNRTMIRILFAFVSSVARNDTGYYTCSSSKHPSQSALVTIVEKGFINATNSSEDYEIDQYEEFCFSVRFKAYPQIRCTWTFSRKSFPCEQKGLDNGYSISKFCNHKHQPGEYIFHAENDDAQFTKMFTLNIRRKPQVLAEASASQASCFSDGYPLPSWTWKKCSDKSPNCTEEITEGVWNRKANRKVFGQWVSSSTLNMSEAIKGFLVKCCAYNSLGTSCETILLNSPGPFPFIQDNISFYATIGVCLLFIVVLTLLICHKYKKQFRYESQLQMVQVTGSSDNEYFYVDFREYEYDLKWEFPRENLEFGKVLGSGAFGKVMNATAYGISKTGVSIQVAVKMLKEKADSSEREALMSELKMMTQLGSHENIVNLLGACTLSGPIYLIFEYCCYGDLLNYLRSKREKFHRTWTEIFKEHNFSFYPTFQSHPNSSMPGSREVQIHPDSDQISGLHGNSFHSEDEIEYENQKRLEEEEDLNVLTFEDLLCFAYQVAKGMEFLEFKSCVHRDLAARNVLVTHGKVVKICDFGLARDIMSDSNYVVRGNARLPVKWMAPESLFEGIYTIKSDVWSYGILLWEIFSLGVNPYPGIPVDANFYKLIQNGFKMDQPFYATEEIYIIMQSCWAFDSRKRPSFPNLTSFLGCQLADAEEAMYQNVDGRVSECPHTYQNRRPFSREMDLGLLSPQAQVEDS
Chain of Serine/threonine-protein kinase SIK2 (Homo sapiens) (Q9H0K1 whole entry, looked up): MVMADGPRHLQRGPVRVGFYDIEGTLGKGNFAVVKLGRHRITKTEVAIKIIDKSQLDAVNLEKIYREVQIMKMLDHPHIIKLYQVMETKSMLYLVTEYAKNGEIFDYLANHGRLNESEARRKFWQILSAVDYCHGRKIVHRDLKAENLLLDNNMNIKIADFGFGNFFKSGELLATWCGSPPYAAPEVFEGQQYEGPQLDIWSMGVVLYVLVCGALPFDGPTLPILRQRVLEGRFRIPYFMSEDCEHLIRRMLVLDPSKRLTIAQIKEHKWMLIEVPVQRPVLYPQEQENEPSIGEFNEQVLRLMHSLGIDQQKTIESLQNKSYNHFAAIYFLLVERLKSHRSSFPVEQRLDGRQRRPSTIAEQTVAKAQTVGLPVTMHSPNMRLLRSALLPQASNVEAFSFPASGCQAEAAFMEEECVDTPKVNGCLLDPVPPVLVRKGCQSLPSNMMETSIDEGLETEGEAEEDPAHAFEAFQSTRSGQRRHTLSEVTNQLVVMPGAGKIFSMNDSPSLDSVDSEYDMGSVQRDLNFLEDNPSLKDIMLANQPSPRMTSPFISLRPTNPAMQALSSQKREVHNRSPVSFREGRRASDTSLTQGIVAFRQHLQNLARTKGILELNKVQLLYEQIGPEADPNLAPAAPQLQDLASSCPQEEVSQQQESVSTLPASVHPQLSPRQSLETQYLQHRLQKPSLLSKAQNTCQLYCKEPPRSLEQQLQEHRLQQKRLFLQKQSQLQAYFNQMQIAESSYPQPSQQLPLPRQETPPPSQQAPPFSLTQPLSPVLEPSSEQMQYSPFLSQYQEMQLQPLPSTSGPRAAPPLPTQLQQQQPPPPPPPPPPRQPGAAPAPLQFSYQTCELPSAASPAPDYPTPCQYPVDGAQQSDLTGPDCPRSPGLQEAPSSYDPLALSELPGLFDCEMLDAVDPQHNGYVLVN
Chain of MAP/microtubule affinity-regulating kinase 4 (Homo sapiens) (Q96L34 whole entry): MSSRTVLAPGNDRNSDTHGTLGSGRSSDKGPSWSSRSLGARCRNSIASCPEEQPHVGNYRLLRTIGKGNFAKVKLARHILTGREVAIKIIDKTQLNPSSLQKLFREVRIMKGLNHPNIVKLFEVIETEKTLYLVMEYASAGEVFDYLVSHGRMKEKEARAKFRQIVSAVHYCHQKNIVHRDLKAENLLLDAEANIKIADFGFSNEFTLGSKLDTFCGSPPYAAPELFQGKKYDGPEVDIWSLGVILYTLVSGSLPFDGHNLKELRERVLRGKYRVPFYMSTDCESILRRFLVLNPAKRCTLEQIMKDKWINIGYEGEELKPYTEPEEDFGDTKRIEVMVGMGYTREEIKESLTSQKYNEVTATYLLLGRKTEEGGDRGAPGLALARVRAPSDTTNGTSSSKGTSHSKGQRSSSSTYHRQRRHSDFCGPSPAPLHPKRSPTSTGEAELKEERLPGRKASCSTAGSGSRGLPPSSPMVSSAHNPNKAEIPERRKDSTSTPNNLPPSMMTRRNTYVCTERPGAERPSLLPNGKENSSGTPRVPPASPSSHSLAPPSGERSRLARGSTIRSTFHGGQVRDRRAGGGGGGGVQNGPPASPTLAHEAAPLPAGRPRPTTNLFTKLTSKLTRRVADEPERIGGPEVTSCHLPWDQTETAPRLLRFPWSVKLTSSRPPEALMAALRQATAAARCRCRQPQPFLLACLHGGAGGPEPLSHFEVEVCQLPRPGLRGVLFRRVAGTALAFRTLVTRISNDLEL
Chain of Mitogen-activated protein kinase kinase kinase 1 (Homo sapiens) (Q13233 whole entry): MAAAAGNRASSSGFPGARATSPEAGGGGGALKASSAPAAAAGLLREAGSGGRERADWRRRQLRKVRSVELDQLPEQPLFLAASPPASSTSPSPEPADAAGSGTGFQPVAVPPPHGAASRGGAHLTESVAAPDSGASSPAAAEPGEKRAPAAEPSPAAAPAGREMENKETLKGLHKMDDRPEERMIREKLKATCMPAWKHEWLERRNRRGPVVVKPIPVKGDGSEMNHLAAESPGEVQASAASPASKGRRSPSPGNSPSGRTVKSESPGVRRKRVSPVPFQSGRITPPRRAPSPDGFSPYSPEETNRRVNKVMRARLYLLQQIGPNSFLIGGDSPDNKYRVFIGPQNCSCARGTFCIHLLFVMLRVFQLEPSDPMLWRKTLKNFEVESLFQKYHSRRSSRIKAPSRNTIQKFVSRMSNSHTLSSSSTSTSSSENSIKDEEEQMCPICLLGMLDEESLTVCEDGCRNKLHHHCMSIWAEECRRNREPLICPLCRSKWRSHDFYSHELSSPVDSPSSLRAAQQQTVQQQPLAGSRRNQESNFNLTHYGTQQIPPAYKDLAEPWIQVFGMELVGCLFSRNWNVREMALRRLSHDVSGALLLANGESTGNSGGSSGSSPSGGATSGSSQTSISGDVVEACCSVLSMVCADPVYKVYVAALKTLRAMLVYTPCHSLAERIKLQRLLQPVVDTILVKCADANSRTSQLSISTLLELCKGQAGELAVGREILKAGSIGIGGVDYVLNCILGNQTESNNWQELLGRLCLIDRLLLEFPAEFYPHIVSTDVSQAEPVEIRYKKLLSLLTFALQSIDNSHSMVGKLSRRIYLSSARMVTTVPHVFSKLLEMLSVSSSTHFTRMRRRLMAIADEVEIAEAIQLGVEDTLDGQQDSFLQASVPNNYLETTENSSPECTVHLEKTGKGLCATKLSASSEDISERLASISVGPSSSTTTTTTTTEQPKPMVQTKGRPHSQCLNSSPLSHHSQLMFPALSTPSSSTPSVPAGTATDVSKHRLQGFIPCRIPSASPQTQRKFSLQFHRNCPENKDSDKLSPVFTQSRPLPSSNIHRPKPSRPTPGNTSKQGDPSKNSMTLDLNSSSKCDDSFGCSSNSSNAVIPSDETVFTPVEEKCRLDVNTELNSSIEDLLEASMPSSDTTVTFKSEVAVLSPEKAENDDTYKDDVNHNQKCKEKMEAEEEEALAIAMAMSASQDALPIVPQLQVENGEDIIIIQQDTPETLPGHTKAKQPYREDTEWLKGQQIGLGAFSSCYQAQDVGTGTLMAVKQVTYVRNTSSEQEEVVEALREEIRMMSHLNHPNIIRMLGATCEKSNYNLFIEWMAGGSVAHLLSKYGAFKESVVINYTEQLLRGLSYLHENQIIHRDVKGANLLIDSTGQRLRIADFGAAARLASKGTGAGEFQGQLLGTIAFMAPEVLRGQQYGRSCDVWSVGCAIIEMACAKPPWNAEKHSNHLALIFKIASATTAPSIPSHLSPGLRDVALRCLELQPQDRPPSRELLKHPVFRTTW
Chain of Calcium/calmodulin-dependent protein kinase type 1B (Homo sapiens) (Q6P2M8 whole entry): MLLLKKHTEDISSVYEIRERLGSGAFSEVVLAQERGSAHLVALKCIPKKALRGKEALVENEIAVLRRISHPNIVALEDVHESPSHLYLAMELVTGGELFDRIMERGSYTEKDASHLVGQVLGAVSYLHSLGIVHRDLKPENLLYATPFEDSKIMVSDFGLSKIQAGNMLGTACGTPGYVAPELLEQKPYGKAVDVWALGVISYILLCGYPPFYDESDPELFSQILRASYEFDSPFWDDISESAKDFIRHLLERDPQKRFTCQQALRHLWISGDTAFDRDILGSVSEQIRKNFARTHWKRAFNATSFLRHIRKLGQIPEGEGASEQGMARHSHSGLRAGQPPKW
Chain of Histamine H1 receptor (Homo sapiens) (P35367 whole entry): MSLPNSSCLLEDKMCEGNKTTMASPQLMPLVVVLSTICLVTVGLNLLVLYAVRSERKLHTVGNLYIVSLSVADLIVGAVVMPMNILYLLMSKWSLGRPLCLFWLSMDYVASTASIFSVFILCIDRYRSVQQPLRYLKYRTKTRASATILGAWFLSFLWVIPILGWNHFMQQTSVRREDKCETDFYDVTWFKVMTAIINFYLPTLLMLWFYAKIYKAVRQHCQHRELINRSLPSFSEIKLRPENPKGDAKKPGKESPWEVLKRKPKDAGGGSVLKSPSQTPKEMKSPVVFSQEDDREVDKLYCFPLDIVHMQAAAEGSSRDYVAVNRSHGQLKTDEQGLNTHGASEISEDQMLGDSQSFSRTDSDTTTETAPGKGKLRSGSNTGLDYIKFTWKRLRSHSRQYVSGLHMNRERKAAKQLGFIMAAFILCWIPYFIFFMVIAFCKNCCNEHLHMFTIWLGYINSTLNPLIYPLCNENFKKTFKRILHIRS
Chain of Receptor-type tyrosine-protein kinase FLT3 (Homo sapiens), P36888 [UNDEFINED MUTATION] (P36888 whole entry, looked up, change not shown): as the sequence (P36888 whole entry) above

CCCOc1ccc([C@H]2[C@H](C(=O)O)[C@@H](c3ccc4c(c3)OCO4)CN2CC(=O)Nc2c(CC)cccc2CC)cc1 [A-192621]
-2.8%: % Inhibition of Control Specific Binding (Mean n=2) [4]
63.1%: % Inhibition of Control Specific Binding (Mean n=2) [1]
inactive: residual activity [5] 100% | residual activity [6] 76% | residual activity [7] 77% | residual activity [8] 86% | residual activity [9] 100% | residual activity [10] 71% | residual activity [11] 100% | residual activity [12] 93% | residual activity [13] 93% | residual activity [14] 85% | residual activity [15] 87% | residual activity [16] 59% | residual activity [17] 80% | residual activity [18] 53% | residual activity [19] 72% | residual activity [20] 77% | residual activity [22] 71% | residual activity [23] 97% | residual activity [24] 60% | residual activity [25] 80% | residual activity [26] 65% | residual activity [27] 86% | residual activity [28] 59% | residual activity [29] 100% | residual activity [30] 100% | residual activity [31] 87% | residual activity [32] 84% | residual activity [33] 71% | residual activity [34] 71% | residual activity [35] 69% | residual activity [36] 63% | residual activity [37] 89% | residual activity [38] 99% | residual activity [39] 95% | residual activity [40] 94% | residual activity [41] 100% | residual activity [42] 85% | residual activity [43] 94%
active: residual activity [21] 47%
-4.4%: % Inhibition of Control Specific Binding (Mean n=2) [2]
7.9%: inhibition at 60 min, 10 µM [3]

CCCOc1ccc([C@@H]2[C@@H](C(=O)O)[C@H](c3ccc4c(c3)OCO4)CN2CC(=O)Nc2c(CC)cccc2CC)cc1 [A-1806262]
13.4%: % Inhibition of Control Specific Binding (Mean n=2) [4]
inactive: residual activity [5] 89% | residual activity [6] 98% | residual activity [7] 100% | residual activity [8] 81% | residual activity [9] 100% | residual activity [10] 74% | residual activity [11] 87% | residual activity [12] 93% | residual activity [13] 95% | residual activity [14] 99% | residual activity [15] 100% | residual activity [16] 61% | residual activity [17] 71% | residual activity [18] 79% | residual activity [19] 94% | residual activity [20] 57% | residual activity [21] 75% | residual activity [22] 80% | residual activity [23] 100% | residual activity [24] 82% | residual activity [25] 83% | residual activity [26] 73% | residual activity [27] 87% | residual activity [28] 81% | residual activity [29] 100% | residual activity [30] 100% | residual activity [31] 97% | residual activity [32] 100% | residual activity [33] 89% | residual activity [34] 98% | residual activity [35] 84% | residual activity [36] 75% | residual activity [37] 96% | residual activity [38] 100% | residual activity [39] 94% | residual activity [40] 100% | residual activity [41] 84% | residual activity [42] 100% | residual activity [43] 100%
9.9%: inhibition at 60 min, 10 µM [3]
-10%: % Inhibition of Control Specific Binding (Mean n=2) [2]
75.9%: % Inhibition of Control Specific Binding (Mean n=2) [1]
